Entries after “also recorded” stand apart in the source; their conditions may differ.
Experiments:
[1] = Gravimetric moisture sorption; type: physicochemical; conditions: relative humidity 0 to 60%, (25.0±0.1) °C
Method: Moisture sorption isotherms were recorded with an SPSx-1μ moisture sorption analyzer (ProUmid, Ulm). The measurement cycle was started at ambient relative humidity (RH) of 30% and first decreased to 3% RH and then to 0% RH. […] The time per step was set to a minimum of 2 hours and a maximum of 6 hours. If an equilibrium condition with a constant mass of ±0.01% within 1 hour was reached before the maximum time for all examined samples the sequential humidity step was applied before the maximum time of 6 hours. If no equilibrium was achieved the consecutive humidity step was applied after the maximum time of 6 hours. The temperature was 25±0.1° C.

[2] = Stress tests: open storage at room temperature over saturated salt solutions at different relative humidities, analysis by PXRD; type: physicochemical; conditions: for physical form found by PXRD after stress test: open storage
Method: Powder X-ray diffraction (PXRD) was performed with a PANalytical X'Pert PRO diffractometer equipped with a theta/theta coupled goniometer in transmission geometry, Cu-Kalpha1,2 radiation (wavelength 0.15419 nm) with a focusing mirror and a solid state PIXcel detector. Diffractograms were recorded at a tube voltage of 45 kV and a tube current of 40 mA, applying a stepsize of 0.013° 2-Theta with 40 s per step (255 channels) in the angular range of 2° to 40° 2-Theta at ambient conditions. A typical precision of the 2-Theta values is in the range of ±0.2° 2-Theta. Thus, the diffraction peak of substantially pure form C that appears for example at 6.5° 2-Theta can appear between 6.3 and 6.7° 2-Theta on most X-ray diffractometers under standard conditions.
Crystalline form C (prepared according to example 1 herein) was open stored at room temperature in desiccators over saturated salt solutions generating different relative humidities.

NC(=O)[C@@H]1CC[C@@H]2CN1C(=O)N2OS(=O)(=O)O.[Na] [form C, sodium salt of (1R,2S,5R)-7-oxo-6-sulfooxy-1,6-diazabicyclo[3.2.1]octane-2-carboxamide]
weight change, based on the weight of crystalline form C [1]: not more than 0.5%
relative humidity at or below which no transformation into any other physical form occurs [2]: ≤ 55%
physical form found by PXRD after stress test ([2]; 45% relative humidity (K2CO3), 9 days): substantially pure form C after 9 days and after
physical form found by PXRD after stress test ([2]; 45% relative humidity (K2CO3), 277 days): remains stable; also recorded: substantially pure form C after 9 days and after
physical form found by PXRD after stress test ([2]; 55% relative humidity (Ca(NO3)2 x 4H2O), 9 days): remains stable; also recorded: substantially pure form C after 9 days
physical form found by PXRD after stress test ([2]; 63% relative humidity (NaBr), 3 days): traces of form A detectable after 3 days
physical form found by PXRD after stress test ([2]; 75% relative humidity (NaCl), 3 days): mainly form A with traces of form C after
physical form found by PXRD after stress test ([2]; 86% relative humidity (KCl), one day): form A after one day
